This note sets out measurements from PubChem BioAssay AID720588 (Broad Institute, 2013).

The source made the active and inactive calls.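 Rule for the calls: active = fitted curve falls past a set limit of signal loss at no more than twice the top dose; inconclusive = flat fit between 30 and 70% signal loss, or poor fit; inactive = signal rise, flat within 30%, or crossing too high.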

The test system of the first assay is HEK293T viability, CellTiter-Glo ATP luminescence, 72 h. As to the kind of experiment: ATP-based viability loss in HEK293T cells – cell-based, CellTiter-Glo luminescence, cherry-pick, set 3, cytotoxicity control, dose response (AID 720588).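 For AC35: potency for luminescence loss meaning cytotoxic compounds.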
Details: not given
Background: In ATP-based viability assays light output follows the ATP content of the culture.
For `N#C[C@@H]1[C@H](c2ccc(C#Cc3ccccc3F)cc2)[C@@H](CO)N1C(=O)c1cccnc1`, the AC35 is 25.4 µM.

Take `COc1ccc(-c2ccc3c(c2)[C@H]2[C@H](CCN2S(=O)(=O)c2ccc(OC)cc2)[C@@H](CO)N3C)cc1`: the AC35 is 24.5 µM.

With `COC(=O)c1ccccc1-c1c2ccc(=N)cc-2oc2cc(N)ccc12`, the AC35 is 15.3 µM.

For `CCc1cccc2c(C(=O)CN3C(=O)NC4(CCCCC4)C3=O)c[nH]c12`, the AC35 is 11.6 µM.

As for `O=C1/C(=C\c2ccccc2)CN(C(=O)CCN2CCCCC2)C/C1=C/c1ccccc1`, the AC35 was 5.13 µM.

Take `CO[C@H]1CN(C)C(=O)c2cc(NC(=O)c3ccc(Oc4ccccc4)cc3)ccc2OC[C@H](C)NC[C@@H]1C`: the AC35 was 14.5 µM.

As for `Nc1nc(=S)c2ncn([C@@H]3O[C@H](CO)[C@@H](O)[C@H]3O)c2[nH]1`, the AC35 was 7.33 µM.

Consider `O=C(NC1CCCC1)N1CCCCN2[C@@H](CO)[C@@H](c3ccc(/C=C/c4ccccc4)cc3)[C@@H]2C1`, for which the AC35 is 9.42 µM.

`C[C@H]1CN([C@@H](C)CO)S(=O)(=O)c2ccc(C#CC(C)(C)O)cc2O[C@@H]1CN(C)Cc1ccc(-c2ccccc2)cc1`: the AC35 is 3.6 µM.

With `Cc1cc(C(=O)Nc2ccc3c(c2)C(=O)N(C)[C@@H]2CC[C@@H](CC(=O)NCc4ccc(-c5ccccc5)cc4)O[C@H]2CO3)no1`, the AC35 was 24.5 µM.

For `C[C@H](CO)N1C[C@H](C)[C@H](CN(C)Cc2ccc(C(=O)Nc3ccccc3N)cc2)Oc2c(cccc2N(C)C)C1=O`, the AC35 was 11.3 µM.

As for `COC1C(C)OC(OC2CC(C)(O)Cc3cc4c(c(O)c32)C(=O)c2c(O)cc3c(c2C4=O)OC2OC3(C)C(O)C(N(C)C)C2O)C(OC)C1(C)OC` (stereo not given), the AC35 is 0.128 µM.

With `Cc1ccc(/C=N/Nc2ccc3ccccc3n2)o1`, the AC35 was 15.5 µM.

With `Cc1cc2sc3ccc(C#CC4(O)CCCCC4)cc3c(=O)c2cc1C`, the AC35 was 18.4 µM.

Regarding `O=C(NCc1ccc(F)cc1)N1[C@H]2CC[C@@H]1C=C(c1ccc(F)cc1OCc1ccccc1)C2`, the AC35 was 14.4 µM.

With `O=c1ccc2ccccc2c2ccccc12`, the AC35 is 14.1 µM.

In the case of `C(=Cc1nc2ccccc2o1)c1ccc2c(c1)OCO2`, the AC35 was 2.47 µM.

Consider `COc1cccc(O)c1CN1CCC(C(=O)Nc2ccc(-c3cccc(C)c3)cc2)CC1`, for which the AC35 was 11.8 µM.

In the case of `Cc1nc(N)nc(N)c1-c1ccc(Cl)c(Cl)c1`, the AC35 was 1.72 µM.

For `O=C1NC(=O)N(Cc2ccco2)C(=O)/C1=C/C=C/c1ccco1`, the AC35 was 13.7 µM.

Turning to `CCCCC[C@H](C)N1C[C@H](COCc2ccccc2)Oc2cc(N3CC[C@@H](N(C)C)C3)ccc2S1(=O)=O`, the AC35 is 14.8 µM.

On to `Cc1nc(N)nc(N)c1CCCc1ccc(Cl)c(Cl)c1`, for which the AC35 is 3.58 µM.

As to `CCOC(=O)[C@]12Cc3ccc(C)cc3[C@H]1N(C1CCCCC1)C(=O)c1ccccc12`, the AC35 is 9.24 µM.

System in the next assay: not listed separately
Described as above. As to conditions: HEK293T viability, CellTiter-Glo ATP luminescence, 72 h; at 21 µM (top of the series).
In the case of `C[C@H]1CN([C@@H](C)CO)C(=O)Cc2cc(NC(=O)CCC(F)(F)F)ccc2O[C@H]1CN(C)Cc1ccc(C(=O)Nc2ccccc2N)cc1`, the activity change, negative = cytotoxicity was -31.3% (inactive).

The assay is the same for the next values; noted with them: HEK293T viability, CellTiter-Glo ATP luminescence, 72 h; at 23.5 µM (top of the series).
For `COC(=O)C[C@@H]1CC[C@@H]2[C@@H](COc3ccc(NC(=O)Nc4ccccc4C)cc3C(=O)N2C)O1`, the activity change, negative = cytotoxicity is 19.2% (inactive).

Regarding `COC(=O)C[C@@H]1CC[C@@H]2[C@H](COc3ccc(NC(=O)c4cccc(F)c4)cc3C(=O)N2C)O1`, the activity change, negative = cytotoxicity is -28.5% (inactive).

For the compound `COC(=O)C[C@@H]1CC[C@@H]2[C@@H](COc3ccc(NC(=O)Nc4cccc(Cl)c4)cc3C(=O)N2C)O1`, the activity change, negative = cytotoxicity is 4.77% (inactive).

The same assay, now with this note: HEK293T viability, CellTiter-Glo ATP luminescence, 72 h; at 26 µM (top of the series).
Consider `COC(=O)C[C@@H]1CC[C@H]2[C@H](COc3ccc(NC(=O)Nc4cc(C)cc(C)c4)cc3C(=O)N2C)O1`, for which the activity change, negative = cytotoxicity is -2.27% (inactive).

Turning to `Cc1csc(NC(=O)CCc2c(C)nc3cc(-c4ccc(Cl)cc4)nn3c2C)n1`, the activity change, negative = cytotoxicity is -13.4% (inactive).

`CN1C(=O)c2cc(NC(=O)c3ccc(Cl)cc3)ccc2OC[C@@H]2O[C@@H](CC(=O)NCc3cccc(F)c3)CC[C@H]21`: the activity change, negative = cytotoxicity is -5.64% (inactive).

Consider `COc1ccc(C2=Nn3c(nnc3-c3ccccc3OC)SC2)cc1OCC1CC1`, for which the activity change, negative = cytotoxicity was -31.8% (inactive).

`CCOc1cc2[nH]c(=S)n(Cc3ccc(C(=O)N4CCN(C)CC4)cc3)c(=O)c2cc1OCC`: the activity change, negative = cytotoxicity is -20.5% (inactive).

Regarding `COC(=O)C[C@@H]1CC[C@@H]2[C@H](COc3ccc(NC(=O)c4ccccc4)cc3C(=O)N2C)O1`, the activity change, negative = cytotoxicity is 41.2% (inactive).

For the compound `C[C@H]1CN([C@@H](C)CO)C(=O)c2cccc(NC(=O)c3ccc(-c4nccs4)cc3)c2O[C@@H]1CN(C)Cc1ccc(C(=O)Nc2ccccc2N)cc1`, the activity change, negative = cytotoxicity was 28.9% (inactive).

Turning to `Cc1ccc(OCCNC(=O)c2cccc(S(=O)(=O)NCc3ccccc3)c2)cc1`, the activity change, negative = cytotoxicity is 12.3% (inactive).

`O=C(O)c1ccc(N/N=C/c2ccc(OC(=O)c3cccc(Cl)c3)cc2)cc1`: the activity change, negative = cytotoxicity is -29.8% (inactive).

In the case of `O=C(c1cccc(S(=O)(=O)NCc2ccccc2)c1)N1CCN(c2ccccc2)CC1`, the activity change, negative = cytotoxicity was -21.2% (inactive).

Regarding `Cc1cc(C(=O)NNC(=O)c2ccc(S(=O)(=O)N(C)C)cc2)c(C)o1`, the activity change, negative = cytotoxicity was -12.5% (inactive).

As to `COc1cc(/C=N\Nc2nc(-c3ccc(C)cc3)c(NC(C)=O)s2)ccc1O`, the activity change, negative = cytotoxicity was -4.57% (inactive).

As to `COc1cccc(S(=O)(=O)N(C)C[C@H]2OCc3cnnn3CCCC(=O)N([C@@H](C)CO)C[C@H]2C)c1`, the activity change, negative = cytotoxicity is 5% (inactive).

Take `C[C@@H]1CN([C@@H](C)CO)C(=O)c2cc(NS(=O)(=O)c3ccccc3)ccc2O[C@@H]1CN(C)Cc1ccc(C(=O)Nc2ccccc2N)cc1`: the activity change, negative = cytotoxicity was -19.2% (inactive).

As for `CC(C)(C)[S@](=O)N1Cc2cc(C(=O)NCC(F)(F)F)nc(-c3cccc(-c4cccc(F)c4)c3)c2[C@@H]1CCO`, the activity change, negative = cytotoxicity was -2.37% (inactive).

Consider `CCOc1ccccc1CNC(=O)c1ccc(Sc2ccc(Cl)cc2)c(NC(C)=O)c1`, for which the activity change, negative = cytotoxicity is -4.6% (inactive).

As for `O=c1c2ccccc2oc2cc(C#CC3(O)CCCCC3)ccc12`, the activity change, negative = cytotoxicity is 15.7% (inactive).

Turning to `O=c1c2ccccc2oc2ccc(C#CC3(O)CCCCC3)cc12`, the activity change, negative = cytotoxicity was -6.65% (inactive).

For the compound `Nc1ccc(-c2cc3ccccc3c(=O)o2)cc1`, the activity change, negative = cytotoxicity was -6.69% (inactive).

In the case of `CC(=O)N1CCCC(c2cc(C(=O)Nc3ccccc3)no2)C1` (stereo not given), the activity change, negative = cytotoxicity is -1.97% (inactive).

In the case of `Nc1ccc2oc(-c3cc(Br)ccc3Cl)nc2c1`, the activity change, negative = cytotoxicity was 19.3% (inactive).

Turning to `C#CCOCCOCCOCCNc1nc(N2CCN(C(=O)CCCCCCCCCCNC(=O)Cn3cc(C[C@@H](C)O)nn3)CC2)nc(N2CCN(C(=O)CCCCCCCCCCNC(=O)[C@H](CO)n3cc(CCCSC)nn3)CC2)n1`, the activity change, negative = cytotoxicity is 23.5% (inactive).

Turning to `CC1(CCc2ccccc2)NC(=O)N(CC(=O)N2CC(=O)Nc3ccccc32)C1=O` (stereo not given), the activity change, negative = cytotoxicity is -7.05% (inactive).

`COC(=O)C[C@@H]1CC[C@@H]2[C@H](COc3ccc(NC(=O)c4ccc(C(F)(F)F)cc4)cc3C(=O)N2C)O1`: the activity change, negative = cytotoxicity was -2.65% (inactive).

On to `Cc1cc(-c2nc3ccccc3s2)ccc1N`, for which the activity change, negative = cytotoxicity was -28% (inactive).

As for `COc1ccc(Nc2ncnc3ccc(Br)cc23)c(OC)c1`, the activity change, negative = cytotoxicity is -18.8% (inactive).

As to `O=C(CCCN1C(=O)/C(=C/c2ccccc2Cl)SC1=S)NNC(=O)c1ccc(Cl)cc1`, the activity change, negative = cytotoxicity was 24.3% (inactive).

Take `Cc1ccc(S(=O)(=O)N(C)C[C@H]2Oc3c(cccc3N(C)C)C(=O)N([C@@H](C)CO)C[C@@H]2C)cc1`: the activity change, negative = cytotoxicity is -21% (inactive).

Consider `O=C(NCCc1ccccc1)c1ccccc1NC(=O)C1CCCO1` (stereo not given), for which the activity change, negative = cytotoxicity was 5.83% (inactive).

With `CCN1C/C(=C/c2ccc(OC)c(O)c2)C(=O)/C(=C/c2ccc(OC)c(O)c2)C1`, the activity change, negative = cytotoxicity is -23.5% (inactive).

For the compound `O=C1c2ccc3c4c(ccc(c24)C(=O)N1c1cccc(O)c1)C(=O)N(c1cccc(O)c1)C3=O`, the activity change, negative = cytotoxicity was 7.85% (inactive).

Consider `O=C(Nc1cccc(Oc2ccc3c(c2)C(=O)NC3=O)c1)c1cccs1`, for which the activity change, negative = cytotoxicity was -22.5% (inactive).

As for `O=C1C(=O)N(Cc2cccs2)c2ccccc21`, the activity change, negative = cytotoxicity is -25.8% (inactive).

For `COc1ccc(Nc2oc(COc3ccccc3OC)nc2C#N)cc1`, the activity change, negative = cytotoxicity is -13.8% (inactive).

For the compound `CN1C/C(=C/c2ccsc2)C(=O)/C(=C/c2ccsc2)C1`, the activity change, negative = cytotoxicity was -30% (inactive).

On to `COc1ccccc1N(/N=C1\Sc2ccccc2C1=O)C(C)=O`, for which the activity change, negative = cytotoxicity was -23.6% (inactive).

On to `COc1ccc(NC(=O)N(C)[C@H]2C[C@H]3c4[nH]c5ccccc5c4CCN3C(=O)[C@H]2CO)cc1`, for which the activity change, negative = cytotoxicity is -20.7% (inactive).

Turning to `CCOc1ccc(NC(=O)C(=O)N/N=C\c2ccc(CNS(=O)(=O)c3ccccc3)o2)cc1`, the activity change, negative = cytotoxicity is -24.2% (inactive).

`O=C(CCCN1C(=O)S/C(=C\c2ccccc2)C1=O)NNC(=O)c1ccccc1O`: the activity change, negative = cytotoxicity was -28.3% (inactive).

On to `Cc1ccc(N2C(=O)c3cccc4c(N)ccc(c34)C2=O)c2cccnc12`, for which the activity change, negative = cytotoxicity was -19.1% (inactive).

In the case of `COc1ccc(/C=C/C(=O)c2cc(F)ccc2OC(=O)c2ccccc2OC)cc1OC`, the activity change, negative = cytotoxicity is -12.6% (inactive).

For the compound `COc1cc(-c2coc3c(C(=O)NCc4ccc(C(F)(F)F)cc4)cccc23)ccc1O`, the activity change, negative = cytotoxicity is -23% (inactive).

For the compound `C[C@@H]1CN([C@H](C)CO)C(=O)c2cc(NC(=O)CCCCCC(=O)Nc3ccccc3N)ccc2O[C@@H]1CN(C)Cc1ccc(Cl)c(Cl)c1`, the activity change, negative = cytotoxicity was -5.39% (inactive).
